{"source": "patent US20030212100A1", "about": "“Quinoline derivatives and medicinal use thereof” (priority 2000, published 2003)", "format_in_all_cases": "cell-based", "key": {"human PPARγ receptor": {"target": "T1, human PPARγ receptor (Homo sapiens, UniProt P37231)", "T1 construct": "corresponding to Ser204-Tyr506 for human PPARγ1 receptor and human PPARγ2; expressed in transfected cells; host or cells: CV-1 cells (pSG5-based expression vector)", "T1 sequence (P37231 204-505 limits assumed)": "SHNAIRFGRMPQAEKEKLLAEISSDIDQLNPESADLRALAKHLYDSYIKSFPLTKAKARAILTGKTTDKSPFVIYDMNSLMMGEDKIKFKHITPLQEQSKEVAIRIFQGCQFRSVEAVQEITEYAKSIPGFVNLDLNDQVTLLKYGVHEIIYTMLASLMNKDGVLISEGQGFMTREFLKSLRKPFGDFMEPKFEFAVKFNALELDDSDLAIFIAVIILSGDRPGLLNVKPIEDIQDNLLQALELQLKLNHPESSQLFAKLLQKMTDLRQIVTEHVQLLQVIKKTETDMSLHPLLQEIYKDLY", "assay": "Luciferase reporter assay of PPARγ agonist activity (Gal4-PPARγ chimera receptor in CV-1 cells)", "details": "luciferase activity with 1 μM Pioglitazone taken as 100, read-out: PPAR γ agonist activity, relative activity; for Emax at 0.1 µM: CV-1, 0.1 μM compound; for Emax at 1 µM: CV-1, 1 μM compound; for Emax at 10 µM: CV-1, 10 μM compound", "protocol": "(§1) Measurement of PPARα Agonist Activity and PPARγ Agonist Activity\n(§2) 1. Materials for Assay of Luciferase Using Human PPARα and PPARγ Receptors\n(§3) The entire procedure was carried out according to the fundamental methods of genetic engineering and the ordinary method in the yeast one-hybrid or two-hybrid system was applied.\n(§4) PGL2-UAS5-TK-luc was prepared as a reporter plasmid carrying a response sequence of Gal4 protein as a basic transcription factor of yeast, an enhancer sequence with five repeat part of UAS, a luciferase gene (luc) under the control of timidine kinase (TK) promoter. Specifically, a DNA fragment encoding a TK promoter (−105/+51) on the downstream side of an enhancer sequence comprising two time repeat of UAS was amplified by PCR using pRL-TK carrying a TK promoter (Promega, Trade name: Catalogue No. E2241) as the template and the primers: […]\n(§5) After the fragment was cleaved with XhoI-Hind III, pGL2-UAS2-TK-luc was obtained by inserting the resultant fragment into the XhoI-Hind III site located on the upstream side of a luciferase structural gene on pGL2-Basic vector (Promega, Trade name: Catalogue No. E1641).\n(§6) After cleavage of a synthetic DNA as an enhancer sequence comprising three time repeat of Gal4 response sequence (SEQ ID NO: 3): 5′-ATTGGTAC([…])×3 AGATCTCGAC) using KpnI and BgIII was carried out, pGL2-UAS5-TK-luc was prepared by inserting the resulting fragment into the KpnI-BgIIIb site of pGL2-UAS2-TK-luc.\n(§7) A vector for expression of a chimera receptor protein, in which a ligand binding region of an internuclear receptor human PPARα or PPARγ receptor was fused with the carboxyl terminal of a DNA binding region of yeast Ga14 protein, was prepared as follows:\n(§8) The structural gene of pSG5 (STRATAGENE, Trade Name: Catalogue No. 216201) as the basic expression vector was changed for the chimera receptor except that the promoter-enhancer region was maintained as it was.\n(§9) The DNA encoding the ligand binding region of the human PPARα or PPARγ receptor was fused on the downstream side of the DNA encoding the DNA binding region and the amino acid sequence from 1 to 147 positions of Ga14 protein so that their reading frames were fitted and the resulting fused DNA was inserted into pSG5 (trade name) on the down stream side of the promoter-enhancer region. In this step, the DNA sequence was arranged so that a signal for transfer into the nucleus (Ala Pro Lys Lys Lys Arg Lys Val Gly (SEQ ID: No: 4) derived from SV-40T antigen was located on the amino terminal of the ligand binding region of PPARα or PPARγ receptor in order to localize the chimera receptor in the nucleus.\n(§10) Based on comparison of the human PPAR receptors described in R. Mukherjee et al., [see J. Steroid Biochem. Molec. Biol., Vol. 51, p157 (1994)] and M. E. Green et al., [see Gene Expression, Vol. 4, p281 (1995))], as the structural gene part used for the ligand binding region PPARα or PPARγ, the human PPARα ligand binding region: Ser167-Tyr468; and the PPARγ ligand binding region: Ser176-Tyr478 were used, which had the same sequences corresponding to Ser204-Tyr506 for human PPARγ1 receptor and human PPARγ2, respectively.\n(§11) In order to monitor influence against the basic transcription, an expression vector was prepared which carried a DNA encoding only the DNA binding region and the amino acid sequence from 1 to 147 position of Ga14 protein defective in its PPAR ligand binding region and a signal for transfer into the nucleus of SV-40T-antigen.\n(§12) 2. Assay of Luciferase Using Human PPARα or PPARγ Receptor\n(§13) CV-1 cells used as a host cell were cultivated according to an ordinary method. Specifically, a fetal bovine serum (Intergent, Catalogue No. 1020-90) was added to a Dulbecco's modified Eagle's medium (DMEM) so that the final concentration became 10%. Further, penicillin G (50 U/ml) and streptomycin sulfate (50 μg/ml) were added. Cultivation was conducted in the resulting medium in a 5% carbon dioxide gas at 37° C. […]"}, "[1]": {"test_system": "TNFα transcription (human TNF transcription-controlling region)", "assay": "Inhibition of TNFα production: luciferase under human TNF transcription-controlling region in 3T3-L1 cell strain No. 46", "details": "10 μM compound; luciferase activity with DMSO taken as 100 (no hTNF: 40%); 24 hours", "from_the_text": "Test for in-vitro Evaluation of the Action of Inhibiting the Production of Tumor Necrosis Factor α (TNFα) Using Lipocytes (Derived from 3T3-L1)\nA luciferase gene was bonded to the downstream side of human TNF transcription-controlling region. The resulting material was stably inserted into the chromosomes of 3T3-L1 cells. The thus-obtained cell strain No. 46 was used for evaluation.\nThe cell strain No. 46 was cultivated according to an ordinary method. Specifically, a bovine serum (Cell Culture Technology, Catalogue No. CC017-502) was added to a Dulbecco's modified Eagle's medium (DMEM) so that the final concentration became 10%. Further, 50 U/ml of penicillin G, 50 ug/ml of streptomycin sulfate and 0.4 mg/ml of G418 were added. In the resulting medium was conducted cultivation in a 5% carbon dioxide gas at 37° C.\nThe cell strain No. 46 was planted into a PLL (poly L-lysine)-coated 48-well plate. When the cell strain reached confluence and then at least two days passed, the medium was substituted with the above medium containing 9 ng/m of hTNF (Genzyme) and an activity for TNFα transcription was induced. hTNF was added and, simultaneously therewith, a compound of the present invention was added so that the final concentration became 10 μM. 24 hours later, the cells were observed by a microscope. Then, the cells were fused and the luciferase activity was measured according to an ordinary method.\nRegarding the activity for TNFα transcription, the luciferase activity when DMSO was added in place of the compound, was taken as 100; and the relative activity when 10 uM of the present compound was added, was shown in Table 1. Incidentally, the relative luciferase activity when no hTNF was added, was 40%."}, "human PPARα receptor": {"target": "T2, human PPARα receptor (Homo sapiens, UniProt Q07869)", "T2 construct": "expressed in transfected cells; host or cells: CV-1 cells (pSG5-based expression vector)", "T2 sequence (Q07869 167-468)": "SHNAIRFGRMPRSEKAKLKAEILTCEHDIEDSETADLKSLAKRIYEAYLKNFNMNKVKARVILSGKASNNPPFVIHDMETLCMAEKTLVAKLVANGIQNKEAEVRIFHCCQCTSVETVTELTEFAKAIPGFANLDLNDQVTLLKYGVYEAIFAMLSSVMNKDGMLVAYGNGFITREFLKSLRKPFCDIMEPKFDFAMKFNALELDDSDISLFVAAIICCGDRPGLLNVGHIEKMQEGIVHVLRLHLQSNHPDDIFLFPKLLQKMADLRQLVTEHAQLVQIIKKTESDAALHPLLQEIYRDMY", "assay": "Luciferase reporter assay of PPARα agonist activity (Gal4-PPARα chimera receptor in CV-1 cells)", "details": "luciferase activity with 10 μM Wy-14,643 taken as 100, read-out: PPARα agonist activity, relative activity; for Emax at 0.1 µM: CV-1, 0.1 μM compound; for Emax at 1 µM: CV-1, 1 μM compound; for Emax at 10 µM: CV-1, 10 μM compound", "protocol": "as §1, §2, §3, §4, §5, §6, §7, §8, §9, §10, §11, §12, §13"}}, "data": [{"smiles": "COc1ccc2ncc(COc3ccc(C=C(C(C)=O)C(C)=O)cc3)c(OC(C)C)c2c1", "note": "[Example 26 (147), 3-{[4-(4-isopropoxy-6-methoxyquinoline-3-yl)methyloxy]phenylmethylene}-2,4-dioxopentane]", "values": [{"measurement": "Emax at 0.1 µM", "setting": "human PPARγ receptor", "result": 0.1, "unit": "%"}, {"measurement": "Emax at 1 µM", "setting": "human PPARγ receptor", "result": 3.7, "unit": "%"}, {"measurement": "Emax at 10 µM", "setting": "human PPARγ receptor", "result": 12.8, "unit": "%"}, {"measurement": "Activity for TNFα transcription, relative activity", "setting": "[1]", "result": 59.0}]}, {"smiles": "CNC(=O)C(Cc1ccc(OCc2cnc3ccc(OC)cc3c2OC(C)C)cc1)C(C)=O", "note": "(stereo not shown) [Example 24 (141), 2-{[4-(4-isopropoxy-6-methoxyquinoline-3-yl)methyloxy]phenylmethyl}-3-oxobutanoic acid N-methylamide]", "values": [{"measurement": "Emax at 0.1 µM", "setting": "human PPARγ receptor", "result": 0.8, "unit": "%"}, {"measurement": "Emax at 1 µM", "setting": "human PPARγ receptor", "result": 1.2, "unit": "%"}, {"measurement": "Emax at 10 µM", "setting": "human PPARγ receptor", "result": 9.4, "unit": "%"}, {"measurement": "Activity for TNFα transcription, relative activity", "setting": "[1]", "result": 71.6}]}, {"smiles": "CCOC(Cc1ccc(OCc2cnc3ccc(OC)cc3c2OC(C)C)cc1)C(N)=O", "note": "(stereo not shown) [Example 3 (102), 2-ethoxy-3-{[4-(4-isopropoxy-6-methoxyquinoline-3-yl)methyloxy]phenyl}propanoic acid amide]", "values": [{"measurement": "Emax at 0.1 µM", "setting": "human PPARγ receptor", "result": 74.1, "unit": "%"}, {"measurement": "Emax at 1 µM", "setting": "human PPARγ receptor", "result": 114, "unit": "%"}, {"measurement": "Emax at 10 µM", "setting": "human PPARγ receptor", "result": 108, "unit": "%"}, {"measurement": "Emax at 0.1 µM", "setting": "human PPARα receptor", "result": 0.4, "unit": "%"}, {"measurement": "Emax at 1 µM", "setting": "human PPARα receptor", "result": 0.9, "unit": "%"}, {"measurement": "Emax at 10 µM", "setting": "human PPARα receptor", "result": 8.5, "unit": "%"}, {"measurement": "Activity for TNFα transcription, relative activity", "setting": "[1]", "result": 71.7}]}, {"smiles": "CCCCNC(=O)C(Cc1ccc(OCc2cnc3ccc(OC)cc3c2OC(C)C)cc1)OCC", "note": "(stereo not shown) [Example 4 (104), 2-ethoxy-3-{[4-(4-isopropoxy-6-methoxyquinoline-3-yl)methyloxy]phenyl}propanoic acid N-butylamide]", "values": [{"measurement": "Emax at 0.1 µM", "setting": "human PPARγ receptor", "result": 0.4, "unit": "%"}, {"measurement": "Emax at 1 µM", "setting": "human PPARγ receptor", "result": 1.1, "unit": "%"}, {"measurement": "Emax at 10 µM", "setting": "human PPARγ receptor", "result": 14.9, "unit": "%"}, {"measurement": "Emax at 0.1 µM", "setting": "human PPARα receptor", "result": 0.3, "unit": "%"}, {"measurement": "Emax at 1 µM", "setting": "human PPARα receptor", "result": 0.3, "unit": "%"}, {"measurement": "Emax at 10 µM", "setting": "human PPARα receptor", "result": 0.3, "unit": "%"}, {"measurement": "Activity for TNFα transcription, relative activity", "setting": "[1]", "result": 64.0}]}]}
